{"source": "paper PMC6688628", "about": "“N-Substituted Pyrrole Derivative 12m Inhibits HIV-1 Entry by Targeting Gp41 of HIV-1 Envelope Glycoprotein” (Frontiers in Pharmacology, 2019)", "key": {"[1]": {"assay": "XTT assay, CHO-WT cells", "type": "cell-based", "conditions": "Chinese hamster", "method": "(§1) The in vitro cell viability of NSPD-12m on HIV-1 target cells (U87-CD4-CXCR4, U87-CD4-CCR5, TZM-bl, and MT-2 cells) and HIV effector cells (CHO-WT cells) was analyzed by an XTT colorimetric assay. Briefly, 100 µl of 5 × 10^5/ml cells was mixed and incubated with 100 µl of NSPD-12m at graded concentrations at 37°C for 3 days. Then, 50 µl of XTT solution (1 mg/ml) containing 0.02 µM of phenazinemethosulphate (PMS) was added to each well, and the cells were incubated at 37°C for another 4 h. The absorbance at 450 nm was measured with an ELISA reader. The 50% cytotoxicity concentrations (CC50) were calculated using the CalcuSyn software ([Chou and Talalay, 1984])."}, "[2]": {"target": "T1, gp41 6-HB (N36/C34) (Human immunodeficiency virus type 1 group M subtype B, UniProt P04578)", "T1 construct": "purchased GL Biochem of China; host or cells: chemical solid-phase Fmoc synthesis", "T1 sequence (P04578 546-581)": "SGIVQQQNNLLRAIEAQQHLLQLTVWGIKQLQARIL", "assay": "CD spectroscopy of N36/C34 alpha-helical conformation", "type": "biochemical, HIV-1", "conditions": "20-µM compound preincubated with N36 before the addition of C34", "method": "The effects of NSPD-12m on the formation of the secondary α-helix structures of the peptides N36 and C34 were detected by CD spectroscopy as described previously ([Liu et al., 2005]; [Zhang et al., 2018]). Briefly, the peptide N36 (10 µM in PBS) was incubated with NSPD-12m (20 µM in PBS) or PBS at 37°C for 30 min, followed by incubation with the peptide C34 (10 µM in PBS) at 37°C for another 30 min. To further confirm that NSPD-12m inhibited the formation of secondary α-helix structures, the peptide N36 was incubated with the peptide C34 at 37°C for 30 min before the addition of the compound. ADS-J1 (40 µM in PBS) was used as a positive control. The reported CD spectra of the peptides N36 and C34 and the mixture of N36, C34, and the compounds described previously were obtained at 25°C using a Jasco 715 spectropolarimeter (Jasco Inc., Japan) with a 5.0-nm bandwidth, 0.1-nm resolution, 0.1-cm path length, 4.0-s response time, and 50-nm/min scanning speed. The spectra were corrected by the subtraction of a blank corresponding to the solvent. The quantities of compounds with α-helix structures were estimated from the molar ellipticity at 222 nm using Jasco software utilities."}, "[3]": {"system": "HIV-1 NL4-3(36G)N42T,N43K", "conditions": "T20-resistant NL4-3(36G)N42T,N43K; p24 ELISA; mean ± SD"}, "[4]": {"system": "HIV-1JR-FL Env mutant R579A pseudovirus", "type": "cell-based", "conditions": "compared with wild-type HIV-1JR-FL pseudovirus"}, "[5]": {"assay": "XTT assay, U87-CD4-CXCR4 cells", "type": "cell-based", "conditions": "human", "method": "as §1"}, "[6]": {"system": "HIV-1 Env-mediated fusion of CHO-WT cells with MT-2 cells", "assay": "HIV-1 Env-mediated cell-cell fusion (syncytium formation)", "type": "cell-based", "conditions": "Human immunodeficiency virus 1, MT2; CHO-WT effector cells, MT-2 target cells; 48 h", "method": "Here, a noninfectious cell–cell fusion assay was used to determine the effect of NSPD-12m on the early step of HIV-1 entry into a target cell as described previously ([Li et al., 2010]). Briefly, 1 × 10^5 CHO-WT cells expressing the HIV-1 envelope glycoprotein gp160 (as the effector cells) were preincubated with graded concentrations of NSPD-12m at 37°C for 30 min. Then, 1 × 10^5 MT-2 cells expressing the CD4 receptor and the CXCR4 coreceptor (as the target cells) were added and cocultured for another 48 h. The obvious syncytia could be counted under an inverted microscope (Nikon, Japan). Four fields per well were examined randomly. The EC50 values were calculated as described previously ([Chou and Talalay, 1984])."}, "[7]": {"system": "HIV-1JR-FL Env mutant W571A pseudovirus", "type": "cell-based", "conditions": "compared with wild-type HIV-1JR-FL pseudovirus"}, "[8]": {"system": "HIV-1JR-FL Env mutant Q577A pseudovirus", "type": "cell-based", "conditions": "compared with wild-type HIV-1JR-FL pseudovirus"}, "[9]": {"system": "HIV-1 93/BR/020", "assay": "microbe, parasite or virus in culture", "type": "cell-based", "conditions": "Human immunodeficiency virus 1, primary strain 93/BR/020, luciferase readout, mean ± SD", "method": "(§2) The HIV-1 replication-inhibiting activity of compounds was determined as previously described ([Li et al., 2013]). Briefly, 1 × 10^4 TZM-bl or MT-2 cells were infected with primary HIV-1 strains or T20-resistant HIV-1 strains (100 TCID50) in 200 µl of RPMI-1640 medium containing 10% FBS in the presence or absence of compounds at graded concentrations for 12 h. The culture medium was replaced with fresh medium without the compounds. After culture for an additional 48 h, supernatants or cells were collected from each well. For the primary HIV-1 strains, the cells were treated using a luciferase kit. Briefly, the cells were lysed with the lysis reagent and were transferred into a 96-well flat-bottom luminometer plate after three washes with phosphate-buffered saline (PBS) (Costar Corning Inc., Corning, NY), followed by addition of the luciferase substrate included in the luciferase kit (Promega Corp., Madison, WI). The luciferase activity was measured immediately by an Ultra 384 microplate reader (Tecan, Research Triangle Park, NC). T20 was used as a positive control. For the T20-resistant HIV-1 strains, 100 µl of culture supernatant was mixed with 100 µl of 5% Triton X-100. Then, those virus lysates were assayed for p24 antigen by enzyme linked immunosorbent assay (ELISA) as previously described ([Li et al., 2010]). Absorbance at 450 nm was recorded in an ELISA reader (Ultra 384, Tecan). EC50 values were calculated using the computer program CalcuSyn ([Chou and Talalay, 1984])."}, "[10]": {"system": "HIV-1 US4 (GS 007)", "assay": "microbe, parasite or virus in culture", "type": "cell-based", "conditions": "Human immunodeficiency virus 1, primary strain US4 (GS 007), luciferase readout, mean ± SD", "method": "as §2"}, "[11]": {"system": "HIV-1 BCF02", "assay": "microbe, parasite or virus in culture", "type": "cell-based", "conditions": "Human immunodeficiency virus 1, primary strain BCF02, luciferase readout, mean ± SD", "method": "as §2"}, "[12]": {"system": "HIV-1HXB2 (X4 strain) Env pseudotyped virus", "assay": "microbe, parasite or virus in culture", "type": "cell-based", "conditions": "Human immunodeficiency virus 1, single-cycle infection, luciferase"}, "[13]": {"system": "HIV-1JR-FL (R5 strain) Env pseudotyped virus", "assay": "microbe, parasite or virus in culture", "type": "cell-based", "conditions": "Human immunodeficiency virus 1, single-cycle infection, luciferase"}}}
{"compound": "Cc1cc(/C=C2\\SC(=S)N(Cc3ccccc3C(F)(F)F)C2=O)c(C)n1-c1ccc(O)c(C(=O)O)c1", "note": "[NSPD-12m]", "values": [{"measurement": "CC50 at 3 days", "setting": "[1]", "result": "60 ± 13.2", "unit": "µM"}, {"measurement": "CC90 at 3 days", "setting": "[1]", "result": "74.6 ± 13.8", "unit": "µM"}, {"measurement": "α-helical content of the 6-HB (CD, 222 nm)", "setting": "[2]", "result": "clearly reduced"}, {"measurement": "IC50", "setting": "[3]", "result": "4.23 ± 1.92", "unit": "µM"}, {"measurement": "IC90", "setting": "[3]", "result": "29.7 ± 2.28", "unit": "µM"}, {"measurement": "inhibitory activity against R579A mutant pseudovirus", "setting": "[4]", "result": "retained the inhibitory activity"}, {"measurement": "CC50 at 3 days", "setting": "[5]", "result": "101.4 ± 0.48", "unit": "µM"}, {"measurement": "CC90 at 3 days", "setting": "[5]", "result": "122.5 ± 0.59", "unit": "µM"}, {"measurement": "EC50", "setting": "[6]", "result": "14.4 ± 1.24", "unit": "µM"}, {"measurement": "inhibitory activity against W571A mutant pseudovirus", "setting": "[7]", "result": "retained the inhibitory activity"}, {"measurement": "inhibitory activity against Q577A mutant pseudovirus", "setting": "[8]", "result": "retained the inhibitory activity"}, {"measurement": "IC50", "setting": "[9]", "result": "4.91 ± 0.13", "unit": "µM"}, {"measurement": "IC90", "setting": "[9]; read-out: IC90", "result": "6.76 ± 1.56", "unit": "µM"}, {"measurement": "IC50", "setting": "[10]; read-out: IC50", "result": "2.34 ± 0.353", "unit": "µM"}, {"measurement": "IC90", "setting": "[10]; read-out: IC90", "result": "5.27 ± 2.73", "unit": "µM"}, {"measurement": "IC50", "setting": "[11]; read-out: IC50", "result": "1.79 ± 0.238", "unit": "µM"}, {"measurement": "IC90", "setting": "[11]; read-out: IC90", "result": "3.48 ± 1.09", "unit": "µM"}, {"measurement": "EC50", "setting": "[12]", "result": "~23.1", "unit": "µM"}, {"measurement": "EC50", "setting": "[13]", "result": "~14", "unit": "µM"}]}
